Source: paper PMC12588083, “Validated antimalarial drug target discovery using genome-scale metabolic modeling” (Antimicrobial Agents and Chemotherapy, 2025)
Entries after “also recorded” stand apart in the source; their conditions may differ.

Assays:
[1] = tested on: P. falciparum 3D7; experiment: Antiplasmodial activity (IC50), SYBR Green fluorescence, 48 hours; format: cell-based, Plasmodium falciparum
Protocol: P. falciparum 3D7 parasites underwent two synchronization cycles with D-sorbitol initiating the inhibitor testing. Parasitemia and hematocrit were adjusted to 0.5% and 3%, respectively. Synchronized ring parasites were cultured in 96-well plates in complete RPMI medium with varying inhibitor concentrations. Inhibitor stock solutions, mostly at 100 mM, were prepared in DMSO. […] Triplicate wells were prepared for each compound. Negative controls included wells with uninfected red cells (3% hematocrit) in complete RPMI medium.
Culture plates were incubated in a chamber with controlled gas conditions at 37°C. After 48 hours, parasites were quantified using a fluorescence-based assay with SYBR Green dye as previously described ([51]). Lysis buffer containing SYBR Green was added to each well, and plates were incubated at room temperature for 45 minutes and protected from the light. Fluorescence was measured using a microplate reader (POLARstar OPTIMA, BMG Labtech) with excitation at 485 nm and detection at 520 nm. Background fluorescence of uninfected red cells was subtracted, and dose-response curves were plotted against inhibitor concentration. IC50 values were determined using nonlinear regression curve fitting in GraphPad Prism software.

[2] = biological target: T1, recombinant human UMP-CMP kinase (hUCK) (Homo sapiens, UniProt P30085); experiment: Inhibition constant (Ki) determination, coupled PK/LDH NADH assay, hUCK; format: biochemical; conditions: for Ki—hUCK: 1 mM CMP, competitive equation
T1 construct: constructed by amplifying its ORF from an available commercial plasmid; His tag (vector-encoded by pET28a; the text names only the HisPur Ni-NTA and His GraviTrap TALON columns) (N); host or cells: E. coli BL21 (DE3) with extra argU, ileY and leuW tRNA genes
T1 sequence (P30085 1-228 isoform P30085-3): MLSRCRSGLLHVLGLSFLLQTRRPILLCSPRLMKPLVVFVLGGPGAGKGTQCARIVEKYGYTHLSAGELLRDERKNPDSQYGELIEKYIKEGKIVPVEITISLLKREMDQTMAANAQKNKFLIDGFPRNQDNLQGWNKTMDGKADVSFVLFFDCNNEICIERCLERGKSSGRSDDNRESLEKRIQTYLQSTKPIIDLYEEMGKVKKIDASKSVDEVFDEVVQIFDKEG
Protocol: The protein was purified with a HisPur Ni-NTA Spin column, and elution was performed with 250 mM imidazole in elution buffer (50 mM Tris-HCl, 750 mM NaCl, and 10% glycerol; pH 7.5). The protein was further purified using a His GraviTrap TALON column (Cytiva, catalog number 29-0005-94). The buffers employed were binding buffer (50 mM potassium phosphate [KP], 100 mM NaCl, and 10% glycerol; pH 8.0), washing buffer (50 mM KP, 500 mM NaCl, 10 mM imidazole, and 10% glycerol; pH 8.0), and elution buffer (50 mM Tris-HCl, 750 mM NaCl, 250 mM imidazole, and 10% glycerol; pH 7.5). The purified protein was desalted using a PD-10 column (Sephadex G25 M; Cytiva, catalog number 17085101) stored in a storage buffer (25 mM Tris-HCl, 50 mM KCl, and 20% glycerol; pH 7.0). Purity of the recombinant protein was verified via SDS-PAGE (Mini-Protein TGX Precast Gels; Bio-Rad), and its concentration was determined using a Bradford protein assay (Bio-Rad, catalog number 5000006).
(§1) The final concentration of dimethyl sulfoxide (Merck, Catalog number 472301) in the assay reaction was maintained at 1%.

[3] = tested on: recombinant PfUCK (P. falciparum UMP-CMP kinase, PfUCK-Δ23); experiment: Inhibition constant (Ki) determination, coupled PK/LDH NADH assay, recombinant PfUCK; format: biochemical, Plasmodium falciparum; conditions: hUCK versus PfUCK
Protocol: (§2) The hydrophobic core at the protein’s N-terminus may cause poor expression and low solubility in E. coli. Therefore, a truncated gene was created where the ORF began at amino acid residues 24–371, encoding a 348 amino acid protein. […] Briefly, protein expression was induced with isopropyl-D-thiogalactoside, incubated at 16°C with shaking at 200 RPM for 20 hours, and the cell pellet resuspended in binding buffer (50 mM Tris [pH 7.6], 300 mM NaCl, 20 mM imidazole, 5% glycerol, and 0.075% β-mercaptoethanol), with cell disruption using an Avestin C3 Cell Disrupter. Cell debris was removed, and the UCK was purified by Ni-NTA affinity purification. The protein was eluted from the column using a linear gradient of imidazole ([…]) in elution buffer (50 mM Tris [pH 7.6], 300 mM NaCl, 5% glycerol, and 0.075% β-mercaptoethanol). […] The concentrated protein was then stored at −70°C in a storage buffer (25 mM Tris-HCl, 50 mM KCl, and 20% glycerol; pH 7.0).
as §1

[4] = biological target: recombinant PfUCK (P. falciparum UMP-CMP kinase, PfUCK-Δ23) (Plasmodium falciparum, UniProt Q8I231); experiment: as above; format: biochemical; conditions: for Ki—PfUCK: Table 4, benzoylacetonitrile derivatives, 1 mM CMP, competitive equation
Protocol: as §2, §1

[5] = biological target: T2, hUCK (Homo sapiens, UniProt P30085); conditions: read-out: Km hUCK; phosphate acceptor; literature values ref 66; cited from earlier work
[6] = biological target: T3, PfUCK (Plasmodium falciparum, UniProt Q8I231); experiment: UCK characterization: Km for nucleoside monophosphate substrates, PfUCK; format: biochemical; conditions: UMP versus CMP
T3 sequence (Q8I231 24-371): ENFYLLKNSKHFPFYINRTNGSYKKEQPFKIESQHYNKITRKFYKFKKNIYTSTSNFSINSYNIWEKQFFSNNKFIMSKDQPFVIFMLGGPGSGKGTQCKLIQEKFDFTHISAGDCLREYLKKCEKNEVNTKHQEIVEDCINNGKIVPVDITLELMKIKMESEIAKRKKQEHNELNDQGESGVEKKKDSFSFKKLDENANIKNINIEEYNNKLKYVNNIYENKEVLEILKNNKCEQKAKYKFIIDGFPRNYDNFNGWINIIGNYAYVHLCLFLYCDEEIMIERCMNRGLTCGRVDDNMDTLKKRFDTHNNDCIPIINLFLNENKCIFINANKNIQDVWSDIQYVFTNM
Protocol: (§3) Enzyme activity was assessed using an indirect spectrophotometric assay that measured NADH absorbance at 340 nm coupled to pyruvate kinase/lactate dehydrogenase. The reaction mixture contained 50 mM Tris-HCl (pH 7.6), 50 mM KCl, 10 mM MgCl2, 5 mM ATP, 0.2 mM NADH, 1 mM phosphoenolpyruvate, 10 mM dithiothreitol, pyruvate kinase (10 U/mL), lactate dehydrogenase (15 U/mL), and purified UCK (OD340/min of 0.04–0.06). […] The decrease in absorbance was monitored using a UV/visible spectrophotometer (Ultrospec 2100 Pro).
(§4) Then, a reaction rate was calculated from the decrease in absorbance at 340 nm (εNADH = 6.22 × 10^−3 M^−1 cm^−1) compared to the control reaction in which UCK was absent. The maximum reaction rate (Vmax) and Michaelis constant (Km) values were calculated using the Michaelis-Menten equation (v = Vmax[S] /Km+ [S]), where v is the reaction rate and [S] is the substrate concentration.

[7] = biological target: T2, hUCK; conditions: hUCK versus PfUCK
Protocol: as §3, §4

[8] = substrate: O=c1ccn([C@@H]2O[C@H](COP(=O)(O)O)[C@@H](O)[C@H]2O)c(=O)[nH]1; experiment: purified protein, by the assay type; conditions: other: phosphate acceptor, ATP as phosphate donor, 25°C, pH 7.6
[9] = substrate: O=c1ccn([C@@H]2O[C@H](COP(=O)(O)O)[C@@H](O)[C@H]2O)c(=O)[nH]1; experiment: UCK characterization: Km for nucleoside monophosphate substrates, PfUCK; format: biochemical, Plasmodium falciparum; conditions: other: phosphate acceptor, ATP as phosphate donor, 25°C, pH 7.6
Protocol: as §3, §4

[10] = substrate: Nc1ccn([C@H]2C[C@H](O)[C@@H](COP(=O)(O)O)O2)c(=O)n1; experiment: as above; format: biochemical, Plasmodium falciparum; conditions: other: phosphate acceptor, ATP as phosphate donor, 25°C, pH 7.6
Protocol: as §3, §4

[11] = Plasmodium falciparum, 3D7, 48 h, Supplementary Table 7, benzoylacetonitrile derivatives
[12] = Supplementary Table 7, benzoylacetonitrile derivatives
[13] = Table 4, benzoylacetonitrile derivatives
[14] = Plasmodium falciparum, 3D7, 48 h, Table 5
[15] = Table 3, acrylamide and chloroacetamide compounds

In the case of N#CCC(=O)c1cccc(Cl)c1 [Compound C7], the IC50 [1, 11] is reported as over 310 µM, the IC50 [1, 12] is reported as 380 ± 50.1 µM and the “Ki—hUCK” value [2, 13] is reported as “little or no inhibition of hUCK; also recorded: No inhibition at 1 mM”. For the same molecule, the Selectivity index ([3]; Table 4) was over 235 and the Ki [4] was 4.26 ± 0.55 µM.

In the case of COc1ccc(C(=O)CC#N)cc1 [Compound C8], the “Ki—PfUCK” value [4] is reported as “no inhibition at 1 mM”.

With COC(=O)c1ccc(C(=O)CC#N)cc1 [Compound C9] the “Ki—PfUCK” value [4] was “insoluble”.

With N#CCC(=O)c1ccc(Cl)cc1 [Compound C10] the “Ki—PfUCK” value [4] was “No inhibition at 1 mM”.

In the case of N#CCC(=O)c1ccccc1 [Compound C11], the “Ki—PfUCK” value [4] is reported as “No inhibition at 1 mM”.

In the case of N#CCC(=O)c1ccc(Cl)c(Cl)c1 [Compound C12], the “IC50 - P. falciparum (3D7), µM” value [1, 12] is reported as “no inhibition at 0.5 mM”, the “Ki—hUCK” value [2, 13] is reported as “No inhibition at 1 mM” and the Selectivity index ([3]; Table 4) is reported as over 89. The Ki [4] was 11.3 ± 2.22 µM.

With O=C(CCl)NCc1cc(=O)n2ccccc2n1 [Compound C21] the IC50 [1, 14] was 15.6 ± 1.13 µM, the Ki [2] was 2.98 ± 0.5 µM and the “Ki—hUCK” value [2, 15] was “inhibited hUCK activity”. For the same molecule, the Selectivity index ([3]; Table 3) was 0.22 and the Ki [4] was 13.7 ± 3.18 µM.

With N#CCC(=O)c1cccc(Br)c1 [Compound C37] the “Ki—PfUCK” value [4] was “no inhibition at 1 mM”.

With N#CCC(=O)c1cccc(F)c1 [Compound C38] the IC50 [1, 11] was over 310 µM, the IC50 [1, 12] was 339 ± 26.4 µM and the “Ki—hUCK” value [2, 13] was “little or no inhibition of hUCK; also recorded: No inhibition at 0.5 mM”. For the same molecule, the Ki [4] was 1.66 ± 0.27 µM.

With N#CCC(=O)c1ccccc1Cl [Compound C39] the “IC50 - P. falciparum (3D7), µM” value [1, 12] was “no inhibition at 1 mM”, the “Ki—hUCK” value [2, 13] was “little or no inhibition of hUCK; also recorded: No inhibition at 1 mM” and the Selectivity index ([3]; Table 4) was over 275. For the same molecule, the Ki [4] was 3.64 ± 0.59 µM.

With C=CC(=O)NCc1cc(=O)n2ccccc2n1 [Compound C43] the IC50 [1, 14] was over 1000 µM, the Ki [2] was 4.55 ± 0.52 µM and the “Ki—hUCK” value [2, 15] was “inhibited hUCK activity”. It also gave a Selectivity index ([3]; Table 3) of 1.09 and a Ki [4] of 4.15 ± 0.26 µM.

C=CC(=O)N1CCC(C(=O)NCc2cc(=O)n3ccccc3n2)CC1 [Compound C58] showed an IC50 [1, 14] of over 1000 µM and a Ki [4] of 2.11 ± 0.21 µM.

For N#CCC(=O)c1cc(Cl)cc(Cl)c1 [Compound C62], the “Ki—PfUCK” value [4] was “No inhibition at 1 mM”.

For N#CCC(=O)c1cccc(Cl)c1Cl [Compound C64], the “Ki—PfUCK” value [4] was “No inhibition at 1 mM”.

With COc1cccc(C(=O)CC#N)c1 [Compound C65] the “Ki—PfUCK” value [4] was “no inhibition at 1 mM”.

In the case of Cc1cccc(C(=O)CC#N)c1 [Compound C66], the IC50 [1, 11] is reported as over 310 µM, the IC50 [1, 12] is reported as 310 ± 57.9 µM and the “Ki—PfUCK” value [4] is reported as “No inhibition at 1 mM”.

With N#CCC(=O)c1cncc(Br)c1 [Compound C67] the IC50 [1, 11] was 531 ± 61.2 µM and the Ki [4] was 4.38 ± 1.45 µM.

For N#CCC(=O)c1cccc(C(F)(F)F)c1 [Compound C69], the “Ki—PfUCK” value [4] was “No inhibition at 1 mM”.

With N#CCC(=O)c1ccc(CN2CCOCC2)cc1 [Compound C77] the “Ki—PfUCK” value [4] was “No inhibition at 1 mM”.

For N#CCC(=O)c1ccc(-c2ccccc2)cc1 [Compound C79], the “Ki—PfUCK” value [4] was “No inhibition at 1 mM”.

In the case of N#CCC(=O)c1cccc([N+](=O)[O-])c1 [Compound C80], the “Ki—PfUCK” value [4] is reported as “No inhibition at 1 mM”.

Molecule N#CCC(=O)c1cc(C(F)(F)F)cc(C(F)(F)F)c1 [Compound C83] has an IC50 [1, 11] of over 310 µM, an IC50 [1, 12] of 317 ± 50.8 µM and a Ki [4] of 4.66 ± 0.29 µM.

For O=c1ccn([C@@H]2O[C@H](COP(=O)(O)O)[C@@H](O)[C@H]2O)c(=O)[nH]1 [UMP], the Km [5] is given as 45 ± 10 µM, the “fold higher Km than CMP, PfUCK” value [6] is given as 3.9 fold and the “hUCK Km fold greater than PfUCK” value [7] is given as 2.3 fold.

For Nc1ccn([C@H]2C[C@H](O)[C@@H](COP(=O)(O)O)O2)c(=O)n1 [dCMP], the Km [5] is listed as 900 ± 100 µM.

In the case of CMP, the Km [5] is given as 20 ± 5 µM.

B1: hUCK (Homo sapiens) (protein)
chain: MLSRCRSGLLHVLGLSFLLQTRRPILLCSPRLMKPLVVFVLGGPGAGKGTQCARIVEKYGYTHLSAGELLRDERKNPDSQYGELIEKYIKEGKIVPVEITISLLKREMDQTMAANAQKNKFLIDGFPRNQDNLQGWNKTMDGKADVSFVLFFDCNNEICIERCLERGKSSGRSDDNRESLEKRIQTYLQSTKPIIDLYEEMGKVKKIDASKSVDEVFDEVVQIFDKEG
In the case of B1, the Km [8] is reported as 47.7 ± 3.2 µM.

B2: PfUCK (Plasmodium falciparum 3D7) (protein)
chain: ENFYLLKNSKHFPFYINRTNGSYKKEQPFKIESQHYNKITRKFYKFKKNIYTSTSNFSINSYNIWEKQFFSNNKFIMSKDQPFVIFMLGGPGSGKGTQCKLIQEKFDFTHISAGDCLREYLKKCEKNEVNTKHQEIVEDCINNGKIVPVDITLELMKIKMESEIAKRKKQEHNELNDQGESGVEKKKDSFSFKKLDENANIKNINIEEYNNKLKYVNNIYENKEVLEILKNNKCEQKAKYKFIIDGFPRNYDNFNGWINIIGNYAYVHLCLFLYCDEEIMIERCMNRGLTCGRVDDNMDTLKKRFDTHNNDCIPIINLFLNENKCIFINANKNIQDVWSDIQYVFTNM
Work on B2 yielded a Km [9] of 110 ± 14 µM and a Km [10] of 428 ± 11 µM.
